# Tests used:
# [1] = molecular target: T1, Prostaglandin G/H synthase 2 (Homo sapiens) (UniProt P35354); assay: Inhibition of human COX2 at 10 uM
# T1 sequence (whole entry): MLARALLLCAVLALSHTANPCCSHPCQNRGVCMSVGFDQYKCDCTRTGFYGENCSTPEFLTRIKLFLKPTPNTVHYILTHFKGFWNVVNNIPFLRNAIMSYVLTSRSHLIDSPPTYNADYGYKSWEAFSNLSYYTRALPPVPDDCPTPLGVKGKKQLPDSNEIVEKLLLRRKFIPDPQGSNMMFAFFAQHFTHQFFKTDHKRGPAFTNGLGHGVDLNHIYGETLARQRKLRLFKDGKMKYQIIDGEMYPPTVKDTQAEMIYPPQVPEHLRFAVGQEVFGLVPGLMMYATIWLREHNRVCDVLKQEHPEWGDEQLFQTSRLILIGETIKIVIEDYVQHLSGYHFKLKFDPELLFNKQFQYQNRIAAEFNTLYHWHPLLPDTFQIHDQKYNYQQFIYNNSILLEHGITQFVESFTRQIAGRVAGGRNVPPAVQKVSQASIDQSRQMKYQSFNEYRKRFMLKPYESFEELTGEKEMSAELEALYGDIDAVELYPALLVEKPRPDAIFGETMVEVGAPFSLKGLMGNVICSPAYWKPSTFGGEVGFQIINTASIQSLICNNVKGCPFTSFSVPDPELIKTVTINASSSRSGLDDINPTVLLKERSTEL
# [2] = molecular target: T2, Prostaglandin G/H synthase 1 (Bos taurus, UniProt O62664); assay: Inhibition of bovine COX1
# T2 sequence (O62664 whole entry): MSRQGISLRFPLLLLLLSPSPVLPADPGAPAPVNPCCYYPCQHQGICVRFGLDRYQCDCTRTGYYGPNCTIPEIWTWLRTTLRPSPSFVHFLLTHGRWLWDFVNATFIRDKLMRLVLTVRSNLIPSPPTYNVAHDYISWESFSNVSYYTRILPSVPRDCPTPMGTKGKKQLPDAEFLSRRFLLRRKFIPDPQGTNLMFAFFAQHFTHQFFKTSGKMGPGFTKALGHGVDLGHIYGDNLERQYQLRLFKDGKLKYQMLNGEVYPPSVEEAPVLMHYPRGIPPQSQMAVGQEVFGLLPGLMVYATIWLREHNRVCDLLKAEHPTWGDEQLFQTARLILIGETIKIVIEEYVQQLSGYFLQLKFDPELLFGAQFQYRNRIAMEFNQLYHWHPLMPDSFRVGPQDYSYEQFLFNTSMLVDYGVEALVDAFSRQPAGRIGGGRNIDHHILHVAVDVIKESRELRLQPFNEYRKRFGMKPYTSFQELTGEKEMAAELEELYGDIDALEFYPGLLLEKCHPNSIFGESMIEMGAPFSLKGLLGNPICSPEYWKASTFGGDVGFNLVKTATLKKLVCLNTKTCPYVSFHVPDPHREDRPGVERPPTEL
# [3] = Antioxidant activity assessed as hydroxyl radical scavenging activity at 100 uM; type: functional
# [4] = molecular target: T3, Prostaglandin G/H synthase 1 (Bos taurus) (UniProt O62664); assay: Inhibition of bovine COX1 at 10 uM
# T3 sequence (whole entry): T2 sequence (O62664 whole entry)
# [5] = Inhibition of bovine 5LOX
# [6] = molecular target: T4, Prostaglandin G/H synthase 2 (Homo sapiens, UniProt P35354)
# T4 sequence (P35354 whole entry): T1 sequence (whole entry)
structure (smiles),measurement,setting,value
COc1ccc(-c2cn[se]c2-c2ccc(Cl)cc2)cc1,inhibition,[1],16%
same,IC50,[2],10 nM
Cc1ccc(-c2cc(C(F)(F)F)nn2-c2ccc(S(N)(=O)=O)cc2)cc1,inhibition,[3],27%
CS(=O)(=O)c1ccc(-c2[se]ncc2-c2ccc(F)cc2)cc1,inhibition,[4],38%
same,IC50,[5],8000 nM
same,IC50,[6],600 nM
same,inhibition,[3],34%
Cc1ccc(-c2[se]ncc2-c2ccc(Cl)cc2)cc1,IC50,[2],50 nM
COc1ccc(-c2[se]ncc2-c2ccc(Cl)cc2)cc1,inhibition,[1],17%
same,IC50,[2],20 nM
O=c1c2ccccc2[se]n1-c1ccccc1 [EBSELEN],IC50,[2],2100 nM
CC(Cc1ccc(O)c(O)c1)C(C)Cc1ccc(O)c(O)c1 (stereo unspecified) [NORDIHYDROGUAIARETIC ACID],inhibition,[4],31%
same,IC50,[5],1000 nM
same,inhibition,[1],10%
COc1ccc(-c2[se]ncc2-c2ccc(C)cc2)cc1,IC50,[2],20 nM
COc1ccc(-c2cn[se]c2-c2ccc(OC)cc2)cc1,IC50,[6],8000 nM
same,inhibition,[3],14%
same,IC50,[2],6 nM
Clc1ccc(-c2cn[se]c2-c2ccc(Cl)cc2)cc1,IC50,[2],200 nM
Cc1ccc(-c2cn[se]c2-c2ccc(Cl)cc2)cc1,IC50,[2],200 nM
CC1(C)Cc2c(-c3ccccc3)c(-c3ccc(Cl)cc3)c(CC(=O)O)n2C1 [LICOFELONE],IC50,[5],180 nM

# Source: ChEMBL document CHEMBL1156697, “Investigations concerning the COX/5-LOX inhibiting and hydroxyl radical scavenging potencies of novel 4,5-diaryl isoselenazoles” (Eur J Med Chem, 2008)
